In PubChem BioAssay (NCI):
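Cultured in 96-well plates, cells were exposed to test compound for 48 hours across five concentrations. GI50: concentration for 50% inhibition of growth. TGI: total growth inhibition.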

Columns and labels:
Experiment in all cases: NCI tumour cell line growth inhibition, 48 h
[1] = system: HCT-116 colon
[2] = system: K-562 leukemia
[3] = system: M14 melanoma
[4] = system: MALME-3M melanoma
[5] = system: NCI-H226 lung
[6] = system: OVCAR-4 ovarian
[7] = system: SF-295 CNS
[8] = system: SF-539 CNS
[9] = system: SNB-75 CNS
[10] = system: UO-31 renal

Row | Structure (SMILES) | GI50 [1] [µM] | TGI [1] [µM] | GI50 [2] [µM] | TGI [2] [µM] | GI50 [3] [µM] | TGI [3] [µM] | GI50 [4] [µM] | TGI [4] [µM] | GI50 [5] [µM] | TGI [5] [µM] | GI50 [6] [µM] | TGI [6] [µM] | GI50 [7] [µM] | TGI [7] [µM] | GI50 [8] [µM] | TGI [8] [µM] | GI50 [9] [µM] | TGI [9] [µM] | GI50 [10] [µM] | TGI [10] [µM]
1 | COC(=O)c1c(O)c([N+](=O)[O-])cc2c1c1c(n2Cc2ccccc2)C(=O)c2ccccc2C1=O | 4.06 | 17.5 | 19 | 92.6 | 10.6 | 24.1 | 23.4 | 46 | 26.4 | 62.9 | 57.3 | > 100 | 52.1 | > 100 | 18.3 | 55.3 | > 100 | > 100 | 21.1 | > 100
2 | CN(CC#N)C1CCCC[C@H]1O (stereo not given in full) |  | > 100 |  | > 100 |  | > 100 |  | > 100 |  | > 100 |  | > 100 |  | > 100 |  | > 100 |  | > 100 |  | > 100
3 | CS(=O)(=O)Nc1cccc(-c2cc(-c3ccccc3Cl)c(C#N)c(N)n2)c1 | 0.448 | 11.8 | 0.344 | > 100 | 0.464 | 14.6 | 3.23 | 25 | 10.2 | 32.3 | 1.92 | 35.6 | 0.411 | 12.9 | 0.361 | 2.72 | 0.239 | 2.44 | 0.984 | 17.4
4 | N#CC(C#N)N=Nc1ccc(Br)cc1 | 2.44 | 9.44 | 3.02 | > 100 | 3.33 | 16.8 | 1.35 | 10.4 | 4.63 | 27 | 2 | 37.9 | 30.3 | > 100 | 3.57 | 18.3 | 13.7 | > 100 | 1.26 | 7.05
5 | O=C(Nc1cccc(Cc2cccc(NC(=O)c3ccccc3)c2)c1)c1ccccc1 |  | > 100 |  | > 100 |  | > 100 |  | 99.7 |  | > 100 |  | 39.8 |  | 70.2 |  | 39.6 |  | 27.5 |  | 66.3
6 | CN1CCN(c2cc(C(=O)Nc3cc4cc(-c5cnn(C)c5)ccc4cn3)ccn2)CC1 | 0.0376 | 11.4 | 0.0727 | > 100 | 0.22 | 13.3 | 0.155 | 0.584 | 0.205 | 12 | 0.151 | 1.46 | 0.306 | 13.2 | 0.153 | 2.38 | 0.137 | 0.833 | 0.122 | 0.532
7 | O/N=C1/C(=C/c2ccc(Oc3ccccc3)cc2)CCCC1C(NO)c1ccc(Oc2ccccc2)cc1 (stereo not given) |  | 24.6 |  | > 100 |  | > 100 |  | > 100 |  | > 100 |  | > 100 |  | > 100 |  | > 100 |  | > 100 |  | 76.4
